Literature values as cited in article PMC5950987 (Journal of Diabetes Science and Technology, 2017).

Details: administered by needle and syringe

## regular human insulin
  Intraindividual variability of the metabolic effect: 10-30%
